Laboratory results from PMC7044277 (Nature Communications, 2020).
Where “and” joins values, the source holds several entries; their conditions need not be identical. Equal values may be shown once.

Experiments:
Format in all cases: cell-based
Design in all cases: GPCRome screening signal at PTGIR / GPCRome screening signal at PTH1R / GPCRome screening signal at PTH2R / GPCRome screening signal at QRFP / GPCRome screening signal at RXFP2 / GPCRome screening signal at RXFP3 / GPCRome screening signal at RXFP4 / GPCRome screening signal at S1PR2 / GPCRome screening signal at S1PR3 / GPCRome screening signal at S1PR4 / GPCRome screening signal at S1PR5 / GPCRome screening signal at SCTR / GPCRome screening signal at SSTR2 / GPCRome screening signal at SSSTR / GPCRome screening signal at SSTR4 / GPCRome screening signal at SSTR5 / GPCRome screening signal at SUCNR1 / GPCRome screening signal at TA1 / GPCRome screening signal at TAAR2 / GPCRome screening signal at TAAR5 / GPCRome screening signal at TAAR6 / GPCRome screening signal at TAAR8 / GPCRome screening signal at TACR1 / GPCRome screening signal at TACR2 / GPCRome screening signal at TACR3 / GPCRome screening signal at TBXA2R / GPCRome screening signal at TSHR / GPCRome screening signal at UTS2R / GPCRome screening signal at VIPR2 / GPCRome screening signal at GPR68 no V2 Tail / GPCRome screening signal at GRM2 / GPCRome screening signal at GRM3: reference not given here
320 non-olfactory GPCRs [1] = target: 320 non-olfactory GPCRs (Homo sapiens, UniProt P21453); conditions: receptor S1PR1
320 non-olfactory GPCRs [2] = target: 320 non-olfactory GPCRs (Homo sapiens, UniProt P30874); conditions: receptor SSTR2
320 non-olfactory GPCRs [3] = target: T1, 320 non-olfactory GPCRs (Homo sapiens, UniProt P41587); conditions: receptor VIPR2
T1 construct: expressed in transfected cells; host or cells: HTLA cells

320 non-olfactory GPCRs [4] = target: T2, 320 non-olfactory GPCRs (Homo sapiens, UniProt Q969N4); conditions: receptor TAAR8
T2 construct: expressed in transfected cells; host or cells: HTLA cells

[5] = Fig_5f, single replicate values
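Wherever GPCRome agonism screen response is given: fold over basal response of each receptor without drug.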

T1 sequence (P41587 24-438): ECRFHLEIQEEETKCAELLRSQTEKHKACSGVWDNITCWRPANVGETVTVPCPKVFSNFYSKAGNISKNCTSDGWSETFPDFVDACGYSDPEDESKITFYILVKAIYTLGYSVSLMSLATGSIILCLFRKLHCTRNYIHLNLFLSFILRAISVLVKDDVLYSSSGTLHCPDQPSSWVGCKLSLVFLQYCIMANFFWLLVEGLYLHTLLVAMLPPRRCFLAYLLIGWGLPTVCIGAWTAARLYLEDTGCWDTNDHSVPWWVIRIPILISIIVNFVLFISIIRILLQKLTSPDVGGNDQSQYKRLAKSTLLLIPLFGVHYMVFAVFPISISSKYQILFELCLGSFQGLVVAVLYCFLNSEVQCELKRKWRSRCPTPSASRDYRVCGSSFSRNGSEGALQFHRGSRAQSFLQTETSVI
T2 sequence (Q969N4 whole entry): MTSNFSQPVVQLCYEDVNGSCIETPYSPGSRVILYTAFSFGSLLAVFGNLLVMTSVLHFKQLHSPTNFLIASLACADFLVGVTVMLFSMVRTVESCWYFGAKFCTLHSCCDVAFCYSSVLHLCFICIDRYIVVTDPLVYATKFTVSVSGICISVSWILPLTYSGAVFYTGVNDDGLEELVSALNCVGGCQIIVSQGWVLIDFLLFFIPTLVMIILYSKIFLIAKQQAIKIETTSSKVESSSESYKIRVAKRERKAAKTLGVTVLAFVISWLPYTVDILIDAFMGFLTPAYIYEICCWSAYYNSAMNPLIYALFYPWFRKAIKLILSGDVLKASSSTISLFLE
320 non-olfactory GPCRs (Homo sapiens, UniProt P21453), sequence (P21453 whole entry): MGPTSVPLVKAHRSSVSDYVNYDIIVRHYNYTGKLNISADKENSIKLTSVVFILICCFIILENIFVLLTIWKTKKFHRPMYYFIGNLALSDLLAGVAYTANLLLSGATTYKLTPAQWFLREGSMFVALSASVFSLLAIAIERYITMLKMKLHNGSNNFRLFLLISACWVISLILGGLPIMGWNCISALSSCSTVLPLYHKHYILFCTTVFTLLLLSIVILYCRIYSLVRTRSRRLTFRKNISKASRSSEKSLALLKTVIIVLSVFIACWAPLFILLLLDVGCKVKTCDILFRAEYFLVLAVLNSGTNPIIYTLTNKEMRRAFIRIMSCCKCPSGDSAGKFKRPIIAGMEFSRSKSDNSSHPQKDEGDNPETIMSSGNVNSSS
320 non-olfactory GPCRs (Homo sapiens, UniProt P30874), sequence (P30874 whole entry): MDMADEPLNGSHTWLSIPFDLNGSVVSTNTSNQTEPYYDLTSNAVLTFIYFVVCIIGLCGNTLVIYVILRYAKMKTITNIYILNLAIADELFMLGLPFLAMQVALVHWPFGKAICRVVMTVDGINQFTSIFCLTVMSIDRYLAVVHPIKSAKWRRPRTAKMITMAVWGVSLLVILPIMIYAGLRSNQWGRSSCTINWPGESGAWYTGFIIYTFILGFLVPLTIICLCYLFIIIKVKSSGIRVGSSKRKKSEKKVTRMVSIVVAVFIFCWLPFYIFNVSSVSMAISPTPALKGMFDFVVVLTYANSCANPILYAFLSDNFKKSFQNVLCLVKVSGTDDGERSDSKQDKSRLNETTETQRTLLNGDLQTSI

GPCRome screening signal at S1PR1 (320 non-olfactory GPCRs [1]; [5]) | GPCRome screening signal at SSTR2 (320 non-olfactory GPCRs [2]; [5]) | GPCRome screening signal at VIPR2 (320 non-olfactory GPCRs [3]; [5]) | GPCRome screening signal at TAAR8 (320 non-olfactory GPCRs [4]; [5]) | Compound | GPCRome agonism screen response (320 non-olfactory GPCRs [1]; replicate values, Fig_4g) | GPCRome agonism screen response (320 non-olfactory GPCRs [2]; replicate values, Fig_4g) | GPCRome agonism screen response (320 non-olfactory GPCRs [3]; replicate values, Fig_4g) | GPCRome agonism screen response (320 non-olfactory GPCRs [4]; replicate values, Fig_4g)
 |  |  |  | CCOc1cccc2cc(C(C)NCC3(O)CCCCC3)oc12 (centres unmarked) [O4LE6] | 2.353 and 1.219 and 1.439 and 0.7423 | 0.9255 and 0.9659 and 1.077 and 0.7883 | 0.366 and 1.433 and 1.331 and 0.8644 | 0.2595 and 0.5748 and 0.5852 and 0.7484
0.7005 and 1.113 and 2.609 and 1.363 | 1.092 and 1.759 and 1.157 and 0.8246 | 0.8302 and 1.005 and 0.9541 and 0.5143 | 0.6115 and 0.4578 and 0.5144 and 0.5546 | CCOc1ccccc1CCC(C)NCC1(O)CCCCC1.Cl (racemic) [Fig_5f] |  |  |  | 
